Reference: US20240034987A1, “SUPPLEMENTED SERUM-FREE MEDIA FOR CULTURED MEAT PRODUCTION” (Trustees of Tufts College, priority 2020, published 2024)
Entries after “also recorded” stand apart in the source; their conditions may differ.

System: bovine satellite cells (BSCs)
Assay: Short-term growth analysis (3 and 4 days, dsDNA quantitation, brightfield imaging)
Type: cell-based
Details: for BSC proliferation compared to B8 media alone: supplement in B8, range of concentrations, growth over four days; for FGF-2 concentration to which medium could be lowered without significantly affecting growth: vs 40 ng/mL control
Description: Homemade B8 medium was prepared using store-bought components and a previously described formulation and method of preparation. See, Kuo, H. H. et al. Negligible-Cost and Weekend-Free Chemically Defined Human iPSC Culture. Stem Cell Reports 14, 256-270. Table 1 includes the formulation. Additionally, HiDef-B8 medium aliquots were generously provided by Defined Bioscience (Defined Bioscience #LSS-201, San Diego, CA, USA) and added DMEM/F12 with 1% antibiotic/antimycotic. Short term BSC growth (3 and 4 days) was analyzed for mixtures of serum-containing and serum-free media, as well as for pure B8 media with reduced growth factor concentrations and/or with the addition of various media supplements (Table 2). Briefly, BSCs were thawed (passage number <2) and plated in BSC-GM on 96-well tissue-culture plastic plates for each timepoint at a density of 2,500 cells/cm^2 with 0.25 ug/cm^2 iMatrix recombinant laminin-511. After 24 hours, BSC-GM was removed, cells were washed 1× with DPBS, and new media (e.g., B8+/−supplementation) was added. A list of supplements and concentrations can be found in Table 2. Media was changed on day 3, and on days 3 and 4 cells were imaged, media was aspirated from appropriate plates, and plates were frozen at −80° C. Once all timepoints were frozen, cell number was analyzed using a FluoReporter dsDNA quantitation kit (ThermoFisher #F2962) according to the recommended protocol and with fluorescence readings performed on a Synergy H1 microplate reader (BioTek Instruments, Winooski, VT, USA) using excitation and emission filters centered at 360 and 490 nm, respectively. Cell number at 3 and 4 days was analyzed relative to pure B8 or HiDef media.

Row | Compound | BSC proliferation compared to B8 media alone | other results
1 | COc1cc(/C=C/C(=O)CC(=O)/C=C/c2ccc(O)c(OC)c2)ccc1O [curcumin, reference compound] | significantly improved | –
2 | NCCO [ethanolamine, reference compound] | inconsequential | –
3 | CCCCC/C=C\C/C=C\CCCCCCCC(=O)O [linoleic acid, reference compound] | significantly improved | –
4 | CCCCCCCC/C=C\CCCCCCCC(=O)O [oleic acid, reference compound] | significantly improved | growth vs B8 control on day 4 (tested alone in B8, day 4): no significant difference
5 | FGF-2: fibroblast growth factor, component of B8 and Beefy-9, baseline 40 ng/mL | – | effect of complete removal of FGF-2 on cell growth and morphology (0 ng/mL FGF-2 in the media): significantly affects cell morphology; also recorded: significantly affected; effect of FGF-2 reduction on cell morphology (Beefy-9 with 5 ng/mL FGF-2, three days): did not affect morphology; FGF-2 concentration to which medium could be lowered without significantly affecting growth (in B8, four days): 5 ng/mL; FGF-2 concentration to which medium could be lowered without significantly affecting growth (in Beefy-9, four days): 1.25 ng/mL
6 | IL-6: interleukin-6, media supplement (BioRad PBP021) | significantly improved | –
7 | hepatocyte growth factor: hepatocyte growth factor, media supplement tested in B8 | inconsequential | –
